According to PubChem BioAssay AID256 (DTP/NCI, 2004):
“And” between values parts separate entries of the source, which are not always exact repeats. Identical values can stand only once. Inconclusive results and toxic doses are left out.

Test system: CD2F1 mice, L1210 leukemia ip, survival T/C
Test: NCI In Vivo Anticancer Drug Screen. Data for tumor model L1210 Leukemia (intraperitoneal) in CD2F1 (CDF1) mice
Conditions: higher = longer survival
Outline: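 Each value reflects a quotient of treated over vehicle control outcomes in mice with a transplanted tumor.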

For `CONc1ccn(C2OC(CO)C(O)C2O)c(=O)n1` (configuration not stated), the T/C (endpoint: mean survival time, dose: 12.5 mg/kg/injection, schedule: Q01DX009 (ip), vehicle: saline) was 108 % of control, the T/C (endpoint: mean survival time, dose: 25.0 mg/kg/injection, schedule: Q01DX009 (ip), vehicle: saline) was 108 % of control and the T/C (endpoint: mean survival time, dose: 50.0 mg/kg/injection, schedule: Q01DX009 (ip), vehicle: saline) was 117 % of control. For the same compound, the T/C (endpoint: mean survival time, dose: 100.0 mg/kg/injection, schedule: Q01DX009 (ip), vehicle: saline) was 121 % of control, the T/C (endpoint: mean survival time, dose: 200.0 mg/kg/injection, schedule: Q01DX009 (ip), vehicle: saline) was 120 % of control and the T/C (endpoint: mean survival time, dose: 400.0 mg/kg/injection, schedule: Q01DX009 (ip), vehicle: saline) was 97 % of control. For the same compound, the T/C (endpoint: median survival time, dose: 12.5 mg/kg/injection, schedule: Q01DX009 (ip), vehicle: saline) was 101 % of control, the T/C (endpoint: median survival time, dose: 25.0 mg/kg/injection, schedule: Q01DX009 (ip), vehicle: saline) was 108 % of control and the T/C (endpoint: median survival time, dose: 50.0 mg/kg/injection, schedule: Q01DX009 (ip), vehicle: saline) was 108 % of control. The T/C (endpoint: median survival time, dose: 100.0 mg/kg/injection, schedule: Q01DX009 (ip), vehicle: saline) was 111 % of control, the T/C (endpoint: median survival time, dose: 200.0 mg/kg/injection, schedule: Q01DX009 (ip), vehicle: saline) was 112 % of control and the T/C (endpoint: median survival time, dose: 400.0 mg/kg/injection, schedule: Q01DX009 (ip), vehicle: saline) was 120 % of control.

With `Cc1ccccc1N=C(N)Nc1ccccc1C` the T/C (endpoint: mean survival time, dose: 10.0 mg/kg/injection, schedule: Q04DX003 (ip), vehicle: saline with Tween-80) was 98 % of control.

For `CN1N=C(N)c2cn(C3OC(COP(=O)(O)O)C(O)C3O)c3ncnc1c23` (configuration not stated), the T/C (endpoint: mean survival time, dose: 6.25 mg/kg/injection, schedule: Q01DX009 (ip), vehicle: water) was 123 % of control, the T/C (endpoint: mean survival time, dose: 7.81 mg/kg/injection, schedule: Q01DX005 (iv), vehicle: water) was 109 % of control and the T/C (endpoint: mean survival time, dose: 10.0 mg/kg/injection, schedule: Q01DX005 (ip), vehicle: water) was 150 % of control. For the same compound, the T/C (endpoint: mean survival time, dose: 11.73 mg/kg/injection, schedule: Q01DX005 (iv), vehicle: water) was 112 % of control, the T/C (endpoint: mean survival time, dose: 12.5 mg/kg/injection, schedule: Q01DX009 (ip), vehicle: water) was 155 % of control and the T/C (endpoint: mean survival time, dose: 15.63 mg/kg/injection, schedule: Q01DX005 (iv), vehicle: water) was 114 % of control. For the same compound, the T/C (endpoint: mean survival time, dose: 20.0 mg/kg/injection, schedule: Q01DX005 (ip), vehicle: water) was 152 % of control, the T/C (endpoint: mean survival time, dose: 23.45 mg/kg/injection, schedule: Q01DX005 (iv), vehicle: water) was 119 % of control and the T/C (endpoint: mean survival time, dose: 23.45 mg/kg/injection, schedule: Q01DX009 (ip), vehicle: water) was 153 % of control. For the same compound, the T/C (endpoint: mean survival time, dose: 31.25 mg/kg/injection, schedule: Q01DX009 (ip), vehicle: water) was 159 % of control, the T/C (endpoint: mean survival time, dose: 40.0 mg/kg/injection, schedule: Q01DX005 (ip), vehicle: water) was 157 % of control and 163 % of control and the T/C (endpoint: mean survival time, dose: 46.9 mg/kg/injection, schedule: Q01DX005 (iv), vehicle: water) was 151 % of control. The T/C (endpoint: mean survival time, dose: 46.9 mg/kg/injection, schedule: Q01DX009 (ip), vehicle: water) was 156 % of control and 174 % of control, the T/C (endpoint: mean survival time, dose: 62.5 mg/kg/injection, schedule: Q01DX005 (iv), vehicle: water) was 157 % of control and the T/C (endpoint: mean survival time, dose: 62.5 mg/kg/injection, schedule: Q01DX009 (ip), vehicle: water) was 161 % of control. For the same compound, the T/C (endpoint: mean survival time, dose: 80.0 mg/kg/injection, schedule: Q01DX005 (ip), vehicle: water) was 163 % of control and 195 % of control, the T/C (endpoint: median survival time, dose: 6.25 mg/kg/injection, schedule: Q03HX024 (ip), vehicle: alkali diluted with water) was 156 % of control and the T/C (endpoint: median survival time, dose: 12.5 mg/kg/injection, schedule: Q03HX024 (ip), vehicle: alkali diluted with water) was 97 % of control. For the same compound, the T/C (endpoint: median survival time, dose: 24.0 mg/kg/injection, schedule: Q01DX005 (ip), vehicle: water) was 150 % of control, the T/C (endpoint: median survival time, dose: 24.0 mg/kg/injection, schedule: Q01DX009 (ip), vehicle: water) was 157 % of control and the T/C (endpoint: median survival time, dose: 25.0 mg/kg/injection, schedule: Q01DX001 (ip), vehicle: alkali diluted with water) was 97 % of control. For the same compound, the T/C (endpoint: median survival time, dose: 25.0 mg/kg/injection, schedule: Q01DX009 (ip), vehicle: alkali diluted with water) was 168 % of control, the T/C (endpoint: median survival time, dose: 25.0 mg/kg/injection, schedule: Q04DX003 (ip), vehicle: alkali diluted with water) was 151 % of control and the T/C (endpoint: median survival time, dose: 35.0 mg/kg/injection, schedule: Q01DX001 (ip), vehicle: water) was 120 % of control. The T/C (endpoint: median survival time, dose: 35.0 mg/kg/injection, schedule: Q01DX005 (oral), vehicle: water) was 95 % of control, the T/C (endpoint: median survival time, dose: 35.0 mg/kg/injection, schedule: Q01DX009 (ip), vehicle: water) was 167 % of control and the T/C (endpoint: median survival time, dose: 35.0 mg/kg/injection, schedule: Q01DX009 (oral), vehicle: water) was 108 % of control. The T/C (endpoint: median survival time, dose: 50.0 mg/kg/injection, schedule: Q01DX001 (ip), vehicle: alkali diluted with water) was 96 % of control, the T/C (endpoint: median survival time, dose: 50.0 mg/kg/injection, schedule: Q01DX009 (ip), vehicle: alkali diluted with water) was 187 % of control and the T/C (endpoint: median survival time, dose: 50.0 mg/kg/injection, schedule: Q04DX003 (ip), vehicle: alkali diluted with water) was 151 % of control. For the same compound, the T/C (endpoint: median survival time, dose: 53.0 mg/kg/injection, schedule: Q01DX001 (ip), vehicle: water) was 112 % of control, the T/C (endpoint: median survival time, dose: 53.0 mg/kg/injection, schedule: Q01DX001 (oral), vehicle: water) was 105 % of control and the T/C (endpoint: median survival time, dose: 53.0 mg/kg/injection, schedule: Q01DX005 (iv), vehicle: water) was 155 % of control. The T/C (endpoint: median survival time, dose: 53.0 mg/kg/injection, schedule: Q01DX005 (oral), vehicle: water) was 101 % of control, the T/C (endpoint: median survival time, dose: 53.0 mg/kg/injection, schedule: Q01DX009 (ip), vehicle: water) was 182 % of control and the T/C (endpoint: median survival time, dose: 53.0 mg/kg/injection, schedule: Q01DX009 (oral), vehicle: water) was 101 % of control. The T/C (endpoint: median survival time, dose: 80.0 mg/kg/injection, schedule: Q01DX001 (oral), vehicle: water) was 103 % of control, the T/C (endpoint: median survival time, dose: 80.0 mg/kg/injection, schedule: Q01DX005 (ip), vehicle: water) was 155 % of control and the T/C (endpoint: median survival time, dose: 80.0 mg/kg/injection, schedule: Q01DX005 (iv), vehicle: water) was 158 % of control. The T/C (endpoint: median survival time, dose: 80.0 mg/kg/injection, schedule: Q01DX005 (oral), vehicle: water) was 102 % of control, the T/C (endpoint: median survival time, dose: 80.0 mg/kg/injection, schedule: Q01DX009 (ip), vehicle: water) was 185 % of control and the T/C (endpoint: median survival time, dose: 80.0 mg/kg/injection, schedule: Q01DX009 (oral), vehicle: water) was 106 % of control. The T/C (endpoint: median survival time, dose: 100.0 mg/kg/injection, schedule: Q01DX001 (ip), vehicle: alkali diluted with water) was 96 % of control, the T/C (endpoint: median survival time, dose: 100.0 mg/kg/injection, schedule: Q01DX009 (ip), vehicle: alkali diluted with water) was 200 % of control and the T/C (endpoint: median survival time, dose: 100.0 mg/kg/injection, schedule: Q01DX009 (oral), vehicle: alkali diluted with water) was 104 % of control. For the same compound, the T/C (endpoint: median survival time, dose: 100.0 mg/kg/injection, schedule: Q04DX003 (ip), vehicle: alkali diluted with water) was 162 % of control, the T/C (endpoint: median survival time, dose: 120.0 mg/kg/injection, schedule: Q01DX001 (oral), vehicle: water) was 105 % of control and the T/C (endpoint: median survival time, dose: 120.0 mg/kg/injection, schedule: Q01DX005 (ip), vehicle: water) was 161 % of control. For the same compound, the T/C (endpoint: median survival time, dose: 120.0 mg/kg/injection, schedule: Q01DX005 (oral), vehicle: water) was 105 % of control, the T/C (endpoint: median survival time, dose: 120.0 mg/kg/injection, schedule: Q01DX009 (ip), vehicle: water) was 150 % of control and the T/C (endpoint: median survival time, dose: 120.0 mg/kg/injection, schedule: Q01DX009 (oral), vehicle: water) was 103 % of control. For the same compound, the T/C (endpoint: median survival time, dose: 180.0 mg/kg/injection, schedule: Q01DX001 (oral), vehicle: water) was 101 % of control, the T/C (endpoint: median survival time, dose: 180.0 mg/kg/injection, schedule: Q01DX005 (oral), vehicle: water) was 107 % of control and the T/C (endpoint: median survival time, dose: 180.0 mg/kg/injection, schedule: Q01DX009 (oral), vehicle: water) was 102 % of control. For the same compound, the T/C (endpoint: median survival time, dose: 200.0 mg/kg/injection, schedule: Q01DX009 (oral), vehicle: alkali diluted with water) was 103 % of control, the T/C (endpoint: median survival time, dose: 200.0 mg/kg/injection, schedule: Q04DX003 (ip), vehicle: alkali diluted with water) was 150 % of control and the T/C (endpoint: median survival time, dose: 270.0 mg/kg/injection, schedule: Q01DX001 (oral), vehicle: water) was 101 % of control. For the same compound, the T/C (endpoint: median survival time, dose: 270.0 mg/kg/injection, schedule: Q01DX005 (oral), vehicle: water) was 110 % of control, the T/C (endpoint: median survival time, dose: 270.0 mg/kg/injection, schedule: Q01DX009 (oral), vehicle: water) was 112 % of control and the T/C (endpoint: median survival time, dose: 400.0 mg/kg/injection, schedule: Q01DX009 (oral), vehicle: alkali diluted with water) was 114 % of control. For the same compound, the T/C (endpoint: median survival time, dose: 405.0 mg/kg/injection, schedule: Q01DX001 (oral), vehicle: water) was 102 % of control, the T/C (endpoint: median survival time, dose: 800.0 mg/kg/injection, schedule: Q01DX009 (oral), vehicle: alkali diluted with water) was 120 % of control and the T/C (endpoint: median survival time, dose: 1600.0 mg/kg/injection, schedule: Q01DX009 (oral), vehicle: alkali diluted with water) was 122 % of control.

With `CCCCCCCC(=O)Nc1ccc(-n2c(=O)cc(C)n2C)cc1` the T/C (endpoint: mean survival time, dose: 100.0 mg/kg/injection, schedule: Q01DX009 (ip), vehicle: saline with Tween-80) was 90 % of control, the T/C (endpoint: mean survival time, dose: 100.0 mg/kg/injection, schedule: Q04DX003 (ip), vehicle: saline with Tween-80) was 90 % of control and the T/C (endpoint: mean survival time, dose: 200.0 mg/kg/injection, schedule: Q01DX009 (ip), vehicle: saline with Tween-80) was 88 % of control. The T/C (endpoint: mean survival time, dose: 200.0 mg/kg/injection, schedule: Q04DX003 (ip), vehicle: saline with Tween-80) was 97 % of control, the T/C (endpoint: mean survival time, dose: 400.0 mg/kg/injection, schedule: Q01DX009 (ip), vehicle: saline with Tween-80) was 86 % of control and the T/C (endpoint: mean survival time, dose: 400.0 mg/kg/injection, schedule: Q04DX003 (ip), vehicle: saline with Tween-80) was 95 % of control.
